SMILES strings stand for the structures. Activity calls are given as the source filed them. No cut-off for these calls is given here.

The target in data set [1] is Poly [ADP-ribose] polymerase 1 (Homo sapiens, UniProt P09874). Description: Inhibition of human PARP1 incubated for 90 mins by colorimetric assay.
Data set [2] deals with MDA-MB-231. As to the kind of experiment: Antitumor activity against human MDA-MB-231 cells xenografted in BALB/c mouse assessed as tumor growth inhibition at 40 mg/kg, ip administered for 21 days. The data set is classed as functional. Particulars: MDA-MB-231, 504 h, time 21 day, read-out: TGI. (In xenograft studies the graft and the host belong to different species.)
Data set [3] relates to MDA-MB-231. As to the kind of experiment: Antitumor activity against human MDA-MB-231 cells xenografted in BALB/c mouse assessed as tumor growth inhibition at 20 mg/kg, ip administered for 21 days. It is filed as functional. The following applies: MDA-MB-231, 504 h, time 21 day, read-out: TGI.
Another data set has as its system MCF-10A. Description: Effect on PARP1 expression in human MCF-10A cells by immunoblotting analysis. The data set is classed as functional, cell-based. (In general: A western blot detects proteins with antibodies after separation by electrophoresis.)
Data set [4] is described as follows: Metabolic stability in mouse liver microsome assessed as intrinsic clearance. Particulars: liver microsomes, read-out: CLH. The data set is classed as ADME. Background: Liver microsomes are a subcellular fraction often used to study metabolism.
In data set [5] the test system is MDA-MB-231. Description: Induction of cell cycle arrest in human MDA-MB-231 cells assessed as accumulation of cells at G2/M phase at 2 uM incubated for 3 days by PI staining based flow cytometric analysis. It is filed as functional. The following applies: time 3.0 day.
A further data set deals with SK-OV-3. As to the kind of experiment: Antiproliferative activity against BRCA-proficient human SK-OV-3 cells assessed as inhibition of cell proliferation incubated for 5 days by MTT assay. The data set is classed as functional, cell-based. Particulars: SK-OV-3, 120 h.
Data set [6] can be described thus: Metabolic stability in human liver microsome assessed as intrinsic clearance. The following applies: liver microsomes, read-out: CLH. The data set is classed as ADME.
The nature of data set [7]: AUC (0 to infinity) in Sprague-Dawley rat at 1 mg/kg, iv by LC-MS/MS analysis. It is filed as ADME, organism-based. The following applies: in vivo.
Data set [8] in a line: Toxicity in BALB/c mouse xenografted with human MDA-MB-231 cells assessed as kidney damage at 20 to 40 mg/kg, ip administered for 21 days by H and E staining based analysis. The data set is classed as organism-based. The following applies: in vivo, 504 h, dose 20-40 mg/kg, time 21 day.

Poly [ADP-ribose] polymerase 1, sequence (P09874 whole entry): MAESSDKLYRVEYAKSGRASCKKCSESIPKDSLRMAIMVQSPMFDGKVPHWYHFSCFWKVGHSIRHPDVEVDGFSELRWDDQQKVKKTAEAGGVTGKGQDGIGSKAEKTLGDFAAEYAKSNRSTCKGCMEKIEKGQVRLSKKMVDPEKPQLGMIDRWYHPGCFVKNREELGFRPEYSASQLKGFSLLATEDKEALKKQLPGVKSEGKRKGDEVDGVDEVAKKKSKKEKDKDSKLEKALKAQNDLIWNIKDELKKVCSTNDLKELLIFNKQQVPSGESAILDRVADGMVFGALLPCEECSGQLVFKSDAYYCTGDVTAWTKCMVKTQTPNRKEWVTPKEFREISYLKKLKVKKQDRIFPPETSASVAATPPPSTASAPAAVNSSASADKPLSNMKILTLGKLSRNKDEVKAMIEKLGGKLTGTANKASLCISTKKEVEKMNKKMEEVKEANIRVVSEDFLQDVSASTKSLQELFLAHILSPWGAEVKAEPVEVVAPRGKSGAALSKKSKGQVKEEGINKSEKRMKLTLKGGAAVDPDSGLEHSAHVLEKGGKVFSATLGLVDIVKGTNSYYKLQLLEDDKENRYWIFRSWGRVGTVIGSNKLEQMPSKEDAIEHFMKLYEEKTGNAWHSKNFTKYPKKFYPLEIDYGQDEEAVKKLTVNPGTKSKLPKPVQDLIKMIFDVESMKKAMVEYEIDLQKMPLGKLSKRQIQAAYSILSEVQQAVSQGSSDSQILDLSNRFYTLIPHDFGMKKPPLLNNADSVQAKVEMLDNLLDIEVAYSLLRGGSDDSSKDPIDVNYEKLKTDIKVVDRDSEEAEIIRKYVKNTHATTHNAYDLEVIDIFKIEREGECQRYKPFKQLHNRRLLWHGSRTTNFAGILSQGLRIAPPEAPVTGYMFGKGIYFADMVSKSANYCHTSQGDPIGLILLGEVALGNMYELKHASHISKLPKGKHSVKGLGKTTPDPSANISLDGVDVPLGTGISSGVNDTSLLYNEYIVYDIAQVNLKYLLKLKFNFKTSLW

By IC50 is commonly meant the concentration at which inhibition is half-maximal. Broadly, the AUC(0-inf) is the area under the concentration-time curve extrapolated to infinity. Low readings indicate less exposure, high ones more exposure. For the molecule `COc1ccc(Cl)cc1-c1cc(C)ncc1C(=O)Nc1nnc(OCC2CCN(C(=O)c3cc(Cc4n[nH]c(=O)c5ccccc45)ccc3F)CC2)s1`, the IC50 in [1] was 0.0054 µM; in the data set on SK-OV-3, 18.9 µM. Moreover, the inhibition in vivo at 40 mg/kg in the data set with MDA-MB-231 [2] was 74.7%. Also, the inhibition in vivo at 20 mg/kg with MDA-MB-231 [3] was 40.6%. Also, the outcome with MCF-10A and in the data set with MDA-MB-231 [5] was Active. The CLint scaled in [4] stood at 1070 mL/min/kg; in data set [6], 681 mL/min/kg. The AUC(0-inf) in [7] worked out at 738 ng·h/mL. Further, in data set [8], the Activity result is “Non-Toxic”.
